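1) Cells in 96-well plates. 2) Compound, 48 h, 5 concentrations. 3) Linear interpolation between surrounding doses. 4) Unreached endpoint = highest concentration. Here, GI50 denotes the concentration required for 50% inhibition of growth. TGI: concentration producing complete growth inhibition.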
Columns and labels:
Assay in all cases: DTP human tumour cell line panel, 48 h
[1] = test system: MALME-3M melanoma
[2] = test system: SR leukemia
[3] = test system: NCI-H522 lung
[4] = test system: 786-0 renal
[5] = test system: SN12C renal
[6] = test system: T-47D breast
[7] = test system: EKVX NSCLC
[8] = test system: ACHN renal
[9] = test system: PC-3 prostate
[10] = test system: SK-MEL-28 melanoma
[11] = test system: HCC-2998 colon
[12] = test system: CCRF-CEM leukemia
[13] = test system: BT-549 breast
[14] = test system: SF-539 CNS
[15] = test system: NCI-H226 lung
[16] = test system: KM12 colon
[17] = test system: IGROV1 ovarian
[18] = test system: DU-145 prostate
[19] = test system: OVCAR-5 ovarian
[20] = test system: HCT-116 colon
[21] = test system: UO-31 renal
[22] = test system: COLO 205 colon
[23] = test system: HT29 colon
[24] = test system: SK-OV-3 ovarian
[25] = test system: SW-620 colon
[26] = test system: MCF7 breast
[27] = test system: SF-295 CNS
[28] = test system: NCI-H23 lung
[29] = test system: MOLT-4 leukemia
[30] = test system: UACC-257 melanoma
[31] = test system: HL-60(TB) leukemia
[32] = test system: SNB-19 CNS
[33] = test system: NCI-H460 lung
[34] = test system: SK-MEL-2 melanoma
[35] = test system: M14 melanoma
[36] = test system: K-562 leukemia
[37] = test system: SK-MEL-5 melanoma
[38] = test system: RPMI-8226 leukemia
[39] = test system: A498 renal
[40] = test system: TK-10 renal
[41] = test system: LOX IMVI melanoma
[42] = test system: SF-268 CNS
[43] = test system: OVCAR-8 ovarian
[44] = test system: HCT-15 colon
[45] = test system: MDA-MB-231 breast
[46] = test system: CAKI-1 renal
[47] = test system: OVCAR-3 ovarian
[48] = test system: UACC-62 melanoma
[49] = test system: RXF 393 renal
[50] = test system: NCI/ADR-RES ovarian
[51] = test system: HS 578T breast
[52] = test system: SNB-75 CNS
[53] = test system: MDA-MB-468 breast
[54] = test system: U251 CNS
[55] = test system: HOP-92 NSCLC
[56] = test system: A549 NSCLC
[57] = test system: HOP-62 NSCLC
[58] = test system: MDA-MB-435
[59] = test system: OVCAR-4 ovarian

With COc1ccc(NC(=O)Cn2c(/C=C/c3cccc(OC)c3)nc3ccccc3c2=O)cc1 the GI50 [1] was 3.79 µM, the TGI [1] was greater than 85.8 µM and the GI50 [2] was 1.75 µM. For the same molecule, the TGI [2] was greater than 100 µM, the GI50 [3] was 5.8 µM and the TGI [3] was greater than 47.5 µM. It also gave a GI50 [4] of 1.54 µM, a TGI [4] of 3.38 µM and a GI50 [5] of 1.85 µM. For the same molecule, the TGI [5] was greater than 39.1 µM, the GI50 [6] was 2.41 µM and the TGI [6] was 14.6 µM. For the same molecule, the GI50 [7] was greater than 63.1 µM, the TGI [7] was greater than 100 µM and the GI50 [8] was 1.24 µM. For the same molecule, the TGI [8] was 3.17 µM, the GI50 [9] was greater than 54 µM and the TGI [9] was greater than 100 µM. It also gave a GI50 [10] greater than 75 µM, a TGI [10] greater than 100 µM and a GI50 [11] greater than 100 µM. For the same molecule, the TGI [11] was greater than 100 µM, the GI50 [12] was greater than 100 µM and the TGI [12] was greater than 100 µM. It also gave a GI50 [13] of 9.84 µM, a TGI [13] greater than 59.9 µM and a GI50 [14] of 1.65 µM. The TGI [14] was 4.15 µM, the GI50 [15] was 1.98 µM and the TGI [15] was 6.51 µM. For the same molecule, the GI50 [16] was greater than 100 µM, the TGI [16] was greater than 100 µM and the GI50 [17] was greater than 31 µM. It also gave a TGI [17] greater than 87.8 µM, a GI50 [18] greater than 81.2 µM and a TGI [18] greater than 100 µM. The GI50 [19] was greater than 24.9 µM, the TGI [19] was greater than 100 µM and the GI50 [20] was 1.21 µM. For the same molecule, the TGI [20] was greater than 59 µM, the GI50 [21] was 1.73 µM and the TGI [21] was 3.77 µM. The GI50 [22] was greater than 100 µM, the TGI [22] was greater than 100 µM and the GI50 [23] was greater than 100 µM. It also gave a TGI [23] greater than 100 µM, a GI50 [24] of 5.67 µM and a TGI [24] greater than 46.7 µM. For the same molecule, the GI50 [25] was greater than 100 µM, the TGI [25] was greater than 100 µM and the GI50 [26] was 3.56 µM. It also gave a TGI [26] greater than 100 µM, a GI50 [27] of 2.56 µM and a TGI [27] greater than 41.1 µM. For the same molecule, the GI50 [28] was 3.69 µM, the TGI [28] was greater than 44.3 µM and the GI50 [29] was greater than 100 µM. For the same molecule, the TGI [29] was greater than 100 µM, the GI50 [30] was greater than 100 µM and the TGI [30] was greater than 100 µM. The GI50 [31] was greater than 100 µM, the TGI [31] was greater than 100 µM and the GI50 [32] was 8.37 µM. For the same molecule, the TGI [32] was greater than 59.3 µM, the GI50 [33] was 2.51 µM and the TGI [33] was greater than 100 µM. It also gave a GI50 [34] of 27.2 µM, a TGI [34] of 79.6 µM and a GI50 [35] greater than 29.3 µM. For the same molecule, the TGI [35] was greater than 100 µM, the GI50 [36] was greater than 100 µM and the TGI [36] was greater than 100 µM. For the same molecule, the GI50 [37] was greater than 100 µM, the TGI [37] was greater than 100 µM and the GI50 [38] was greater than 100 µM. For the same molecule, the TGI [38] was greater than 100 µM, the GI50 [39] was 1.96 µM and the TGI [39] was 4.68 µM. The GI50 [40] was 2.03 µM, the TGI [40] was 4.5 µM and the GI50 [41] was 2.03 µM. It also gave a TGI [41] greater than 100 µM, a GI50 [42] of 19.4 µM and a TGI [42] greater than 100 µM. It also gave a GI50 [43] of 4.55 µM, a TGI [43] greater than 100 µM and a GI50 [44] greater than 100 µM. For the same molecule, the TGI [44] was greater than 100 µM, the GI50 [45] was 1.4 µM and the TGI [45] was 4.42 µM. It also gave a GI50 [46] of 2.52 µM, a TGI [46] greater than 31.7 µM and a GI50 [47] of 4.03 µM. For the same molecule, the TGI [47] was greater than 45.9 µM, the GI50 [48] was greater than 42.1 µM and the TGI [48] was greater than 89.6 µM. The GI50 [49] was 1.93 µM, the TGI [49] was 5.63 µM and the GI50 [50] was 4.14 µM. The TGI [50] was 86.9 µM, the GI50 [51] was 2.46 µM and the TGI [51] was greater than 100 µM. For the same molecule, the GI50 [52] was 1.63 µM, the TGI [52] was 4.49 µM and the GI50 [53] was 3.4 µM. For the same molecule, the TGI [53] was greater than 91.6 µM, the GI50 [54] was 0.973 µM and the TGI [54] was 4.2 µM. It also gave a GI50 [55] of 2.95 µM, a TGI [55] greater than 44.7 µM and a GI50 [56] of 2.3 µM. It also gave a TGI [56] greater than 100 µM, a GI50 [57] of 3.01 µM and a TGI [57] of 28.3 µM. For the same molecule, the GI50 [58] was greater than 100 µM and the TGI [58] was greater than 100 µM.
With COc1cc(C2CC(c3ccc(C(F)(F)F)cc3)=Nc3c(N)nc(N)nc3N2)ccc1Oc1nc(Nc2ccc(F)cc2)nc(N(C)C)n1 (stereo unspecified) the GI50 [1] was 2.84 µM, the TGI [1] was 14.2 µM and the GI50 [2] was 1.89 µM. The TGI [2] was 5.9 µM, the GI50 [3] was 4.75 µM and the TGI [3] was 23.3 µM. For the same molecule, the GI50 [4] was 4 µM, the TGI [4] was 16.6 µM and the GI50 [5] was 6.09 µM. The TGI [5] was 46.6 µM, the GI50 [6] was 19 µM and the TGI [6] was greater than 100 µM. It also gave a GI50 [7] of 4.23 µM, a TGI [7] greater than 100 µM and a GI50 [8] of 6.05 µM. For the same molecule, the TGI [8] was greater than 100 µM, the GI50 [9] was 3.2 µM and the TGI [9] was greater than 100 µM. For the same molecule, the GI50 [10] was 28.1 µM, the TGI [10] was greater than 100 µM and the GI50 [11] was 2.26 µM. The TGI [11] was 5.69 µM, the GI50 [12] was 3.32 µM and the TGI [12] was greater than 100 µM. It also gave a GI50 [13] of 4.41 µM, a TGI [13] of 21 µM and a GI50 [14] of 6.1 µM. The TGI [14] was 22.1 µM, the GI50 [16] was 3.05 µM and the TGI [16] was 11.7 µM. It also gave a GI50 [17] of 5 µM, a TGI [17] greater than 100 µM and a GI50 [18] of 4.9 µM. The TGI [18] was greater than 100 µM, the GI50 [19] was 35.2 µM and the TGI [19] was greater than 100 µM. It also gave a GI50 [20] of 1.76 µM, a TGI [20] of 3.65 µM and a GI50 [21] of 3.66 µM. For the same molecule, the TGI [21] was greater than 100 µM, the GI50 [22] was 3.09 µM and the TGI [22] was 14.7 µM. For the same molecule, the GI50 [23] was 2.23 µM, the TGI [23] was 5.86 µM and the GI50 [24] was 63.5 µM. The TGI [24] was greater than 100 µM, the GI50 [25] was 5.59 µM and the TGI [25] was 75.2 µM. For the same molecule, the GI50 [26] was 2.66 µM, the TGI [26] was 10.7 µM and the GI50 [27] was 7.12 µM. The TGI [27] was 62.1 µM, the GI50 [28] was 16.9 µM and the TGI [28] was 74.9 µM. It also gave a GI50 [29] of 1.71 µM, a TGI [29] greater than 100 µM and a GI50 [30] of 14.1 µM. It also gave a TGI [30] of 76.5 µM, a GI50 [31] of 2.35 µM and a TGI [31] of 47.3 µM. For the same molecule, the GI50 [32] was 9.14 µM, the TGI [32] was greater than 100 µM and the GI50 [59] was 3.92 µM. For the same molecule, the TGI [59] was 33.1 µM, the GI50 [33] was 2.61 µM and the TGI [33] was 7.19 µM. It also gave a GI50 [34] of 2.94 µM, a TGI [34] of 11.7 µM and a GI50 [35] of 4.41 µM. The TGI [35] was 50.7 µM, the GI50 [36] was 1.85 µM and the TGI [36] was greater than 100 µM. For the same molecule, the GI50 [37] was 3.32 µM, the TGI [37] was 12.8 µM and the GI50 [39] was 17 µM. For the same molecule, the TGI [39] was 89.9 µM, the GI50 [40] was 18 µM and the TGI [40] was 71 µM. The GI50 [42] was 6.14 µM, the TGI [42] was greater than 100 µM and the GI50 [43] was 5.48 µM. For the same molecule, the TGI [43] was greater than 100 µM, the GI50 [44] was 3.4 µM and the TGI [44] was 14.6 µM. It also gave a GI50 [45] of 2.29 µM, a TGI [45] of 8.39 µM and a GI50 [46] of 1.65 µM. For the same molecule, the TGI [46] was greater than 100 µM, the GI50 [47] was 5.46 µM and the TGI [47] was 21.9 µM. For the same molecule, the GI50 [48] was 13.1 µM, the TGI [48] was 31.2 µM and the GI50 [49] was 1.22 µM. For the same molecule, the TGI [49] was 5.54 µM, the GI50 [51] was 4.77 µM and the TGI [51] was 96.2 µM. The GI50 [52] was 2.17 µM, the TGI [52] was greater than 100 µM and the GI50 [53] was 2.4 µM. It also gave a TGI [53] of 7.79 µM, a GI50 [54] of 4.63 µM and a TGI [54] of 21.1 µM. The GI50 [55] was 2.1 µM, the TGI [55] was 9.46 µM and the GI50 [56] was 4.78 µM. The TGI [56] was greater than 100 µM, the GI50 [57] was 17.8 µM and the TGI [57] was 74.6 µM. The GI50 [58] was 4.59 µM and the TGI [58] was 23.5 µM.

— PubChem BioAssay (NCI)
